Earlier results in patent publication US20050107279A1, “Emulsion composition” (Unilever Home & Personal Care USA, Division of Conopco, Inc., priority 2003, published 2005).

Key:
[1] = AOT; range as per Sabatini et al. 1996
[2] = hydrophobic liquid
[3] = hydrophobic liquid; remark: listed apart in the source

SMILES	HLB [1]	Log P [2]	solubility in water [3]
CCCCC(CC)COC(=O)CC(C(=O)OCC(CC)CCCC)S(=O)(=O)[O-].[Na+] (stereo not drawn) [AOT, Aerosol OT]	10-14.9)	–	–
CCCCCCCC [Octane]	–	(Log P = 4.7)	Solubility = 7 × 10^−5%
